According to ChEMBL document CHEMBL1201862, “PubChem BioAssay data set” (2004):
Calls of active or inactive are those of the source.

Key:
[1] = target: T1, Nucleotide-binding oligomerization domain-containing protein 1 (Homo sapiens, UniProt Q9Y239); experiment: SAR analysis of NF-kappaB dependent luciferase using DAP as an inducer - Set 2. [Related pubchem assays (depositor defined):AID1566, AID1575, AID1578, AID1579, AID1849, AID1852, AID2264]; format: functional
T1 sequence (Q9Y239 whole entry): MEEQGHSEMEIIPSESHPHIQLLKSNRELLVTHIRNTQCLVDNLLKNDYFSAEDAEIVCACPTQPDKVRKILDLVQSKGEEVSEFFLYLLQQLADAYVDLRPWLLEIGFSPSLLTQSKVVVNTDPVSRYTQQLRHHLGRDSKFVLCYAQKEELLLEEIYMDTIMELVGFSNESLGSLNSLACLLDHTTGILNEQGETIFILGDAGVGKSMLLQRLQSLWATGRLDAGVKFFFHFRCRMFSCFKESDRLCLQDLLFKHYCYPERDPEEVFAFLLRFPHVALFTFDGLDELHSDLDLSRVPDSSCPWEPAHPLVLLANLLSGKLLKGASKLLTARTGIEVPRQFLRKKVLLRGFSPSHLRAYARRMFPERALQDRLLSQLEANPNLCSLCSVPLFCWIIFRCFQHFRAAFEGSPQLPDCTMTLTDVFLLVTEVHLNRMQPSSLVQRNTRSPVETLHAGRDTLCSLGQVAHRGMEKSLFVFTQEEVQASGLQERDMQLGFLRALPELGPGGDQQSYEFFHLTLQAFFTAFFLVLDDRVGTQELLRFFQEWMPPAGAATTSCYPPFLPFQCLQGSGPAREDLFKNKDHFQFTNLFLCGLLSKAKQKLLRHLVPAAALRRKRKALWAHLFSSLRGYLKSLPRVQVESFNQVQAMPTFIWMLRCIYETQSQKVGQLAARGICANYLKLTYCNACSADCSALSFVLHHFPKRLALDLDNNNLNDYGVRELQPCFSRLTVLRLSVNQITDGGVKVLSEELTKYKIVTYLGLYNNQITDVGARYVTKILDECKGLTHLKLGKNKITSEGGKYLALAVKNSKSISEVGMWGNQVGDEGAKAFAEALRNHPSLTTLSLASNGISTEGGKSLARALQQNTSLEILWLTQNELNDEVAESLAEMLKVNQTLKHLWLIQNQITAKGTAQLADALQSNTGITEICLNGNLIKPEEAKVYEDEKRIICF

Interleukin-8 [2] = target: T2, Interleukin-8 (Homo sapiens, UniProt P10145); experiment: SAR analysis of Tumor necrosis factor alpha (TNF-alpha) induced IL-8 secretion in MCF-7/NOD1 cells - Set 2. [Related pubchem assays (depositor defined):AID1575, AID2250, AID2260]; format: functional, cell-based
T2 sequence (P10145 whole entry): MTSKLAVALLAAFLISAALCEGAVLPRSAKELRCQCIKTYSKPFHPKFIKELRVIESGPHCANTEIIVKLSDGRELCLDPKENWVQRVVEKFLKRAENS

Interleukin-8 [3] = target: T2, Interleukin-8; experiment: SAR analysis of GM-Tri-DAP induced IL-8 secretion in MCF-7/NOD1 cells - Set 2. [Related pubchem assays (depositor defined):AID1575, AID1578, AID2333]; format: functional, cell-based
[4] = target: T3, Nucleotide-binding oligomerization domain-containing protein 2 (Homo sapiens, UniProt Q9HC29); experiment: NOD2 inhibitors, SAR follow-up, set 2 (AID 2475); format: functional
T3 sequence (Q9HC29 whole entry, the tested form may be a part): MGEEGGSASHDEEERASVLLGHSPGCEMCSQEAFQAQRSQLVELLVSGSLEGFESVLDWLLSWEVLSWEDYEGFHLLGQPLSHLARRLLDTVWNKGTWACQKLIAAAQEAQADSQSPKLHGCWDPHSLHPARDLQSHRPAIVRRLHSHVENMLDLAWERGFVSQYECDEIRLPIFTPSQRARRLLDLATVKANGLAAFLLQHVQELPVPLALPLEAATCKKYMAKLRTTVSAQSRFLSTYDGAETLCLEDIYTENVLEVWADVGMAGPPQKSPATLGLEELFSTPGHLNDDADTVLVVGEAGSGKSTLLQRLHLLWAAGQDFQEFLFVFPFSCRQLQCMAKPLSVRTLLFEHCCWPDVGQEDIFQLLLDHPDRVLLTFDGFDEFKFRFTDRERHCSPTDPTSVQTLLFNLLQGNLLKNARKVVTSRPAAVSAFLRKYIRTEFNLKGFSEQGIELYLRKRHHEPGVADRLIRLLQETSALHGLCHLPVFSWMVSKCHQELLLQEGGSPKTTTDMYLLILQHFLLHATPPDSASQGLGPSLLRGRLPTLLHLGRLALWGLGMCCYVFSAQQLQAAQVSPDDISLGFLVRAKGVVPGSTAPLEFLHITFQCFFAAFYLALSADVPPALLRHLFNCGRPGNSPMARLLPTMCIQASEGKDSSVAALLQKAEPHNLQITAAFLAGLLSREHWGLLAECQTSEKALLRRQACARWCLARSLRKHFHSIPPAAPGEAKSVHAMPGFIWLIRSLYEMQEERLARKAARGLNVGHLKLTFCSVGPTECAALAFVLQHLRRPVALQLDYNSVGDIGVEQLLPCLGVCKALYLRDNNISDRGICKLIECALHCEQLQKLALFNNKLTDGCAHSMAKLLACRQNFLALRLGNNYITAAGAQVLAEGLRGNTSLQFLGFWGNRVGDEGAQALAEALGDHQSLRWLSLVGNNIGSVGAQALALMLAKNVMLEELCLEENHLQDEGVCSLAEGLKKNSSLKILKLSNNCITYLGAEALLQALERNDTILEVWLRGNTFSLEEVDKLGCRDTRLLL

HEK293 [5] = experiment: SAR analysis of compounds that are cytotoxic to HEK293 - Set 2. [Related pubchem assays (depositor defined):AID1575, AID1578, AID1849, AID2001, AID2333, AID2334, AID2335, AID2337, AID2800]; format: functional, cell-based; details: Homo sapiens
[6] = target: T1, Nucleotide-binding oligomerization domain-containing protein 1; experiment: SAR analysis of compounds that inhibit NOD1 - Set 2. [Related pubchem assays (depositor defined):AID1566, AID1575, AID1578, AID1849, AID1852, AID2333, AID2335, AID2798]; format: functional
[7] = target: T1, Nucleotide-binding oligomerization domain-containing protein 1; experiment: SAR analysis of compounds that inhibit NOD1 - Set 3. [Related pubchem assays (depositor defined):AID1566, AID1575, AID1578, AID1849, AID1852, AID2333, AID2335, AID2466]; format: functional
Tumor necrosis factor = Tumor necrosis factor (Homo sapiens, UniProt P01375); experiment: TNFa-triggered NF-kB activation inhibitors, SAR follow-up, cell-based, set 3 (AID 2801); format: functional
Sequence of Tumor necrosis factor (P01375 whole entry): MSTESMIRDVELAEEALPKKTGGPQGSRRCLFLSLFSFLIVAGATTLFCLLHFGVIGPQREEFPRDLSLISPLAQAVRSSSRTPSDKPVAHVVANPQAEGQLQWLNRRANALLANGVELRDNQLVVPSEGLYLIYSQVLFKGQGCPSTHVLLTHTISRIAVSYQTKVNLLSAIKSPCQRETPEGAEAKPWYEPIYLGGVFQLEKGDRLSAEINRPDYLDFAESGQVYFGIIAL

HEK293 [8] = experiment: SAR analysis of compounds that are cytotoxic to HEK293 - Set 3. [Related pubchem assays (depositor defined):AID1575, AID1578, AID1848, AID1849, AID2001, AID2333, AID2334, AID2335, AID2337, AID2469]; format: functional, cell-based; details: Homo sapiens
[9] = target: T3, Nucleotide-binding oligomerization domain-containing protein 2; experiment: NOD2 signaling inhibitors, analog potency, SAR follow-up, cell-based, set 3 (AID 2799); format: functional
[10] = Shn3 3'UTR reporter inhibitors, dose response, cell-based, Clone20 osteoblasts, firefly luciferase, cherry-picked (AID 624132); format: functional;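 further: firefly luciferase luminescence from reporter carrying the Shn3 3'UTR in osteoblasts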
[11] = HepG2 cell cytotoxicity, dose response, cytotoxicity control for Shn3 inhibitor project, CellTiter-Glo, cherry-picked (AID 624134); format: functional, cell-based
[12] = control 3'UTR Renilla luciferase suppression, dose response, counter-screen for Shn3 inhibitor project, cell-based, Clone20-Shn3RL, cherry-picked (AID 624133); format: functional
[13] = target: T4, G-protein coupled receptor 35 (Homo sapiens, UniProt Q9HC97); experiment: SAR analysis of Agonists of the GPR35 Receptor using an Image-Based Assay - Set 4. [Related pubchem assays (depositor defined):AID2013, AID2026]; format: functional
T4 sequence (Q9HC97 whole entry): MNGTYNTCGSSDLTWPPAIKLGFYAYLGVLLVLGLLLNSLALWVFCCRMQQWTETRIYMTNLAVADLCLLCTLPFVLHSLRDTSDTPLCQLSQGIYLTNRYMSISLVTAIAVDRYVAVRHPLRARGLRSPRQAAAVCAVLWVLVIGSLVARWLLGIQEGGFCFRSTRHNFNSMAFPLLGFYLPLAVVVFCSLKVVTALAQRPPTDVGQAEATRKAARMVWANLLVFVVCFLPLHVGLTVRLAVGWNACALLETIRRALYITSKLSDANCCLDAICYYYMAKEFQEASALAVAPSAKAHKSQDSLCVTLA

Cannabinoid receptor 1 [14] = target: T5, Cannabinoid receptor 1 (Homo sapiens, UniProt P21554); experiment: SAR analysis of agonists of the Cannabinoid Receptor 1 using an Image-Based Assay - Set 4. [Related pubchem assays (depositor defined):AID2013, AID2026]; format: functional
T5 sequence (P21554 whole entry): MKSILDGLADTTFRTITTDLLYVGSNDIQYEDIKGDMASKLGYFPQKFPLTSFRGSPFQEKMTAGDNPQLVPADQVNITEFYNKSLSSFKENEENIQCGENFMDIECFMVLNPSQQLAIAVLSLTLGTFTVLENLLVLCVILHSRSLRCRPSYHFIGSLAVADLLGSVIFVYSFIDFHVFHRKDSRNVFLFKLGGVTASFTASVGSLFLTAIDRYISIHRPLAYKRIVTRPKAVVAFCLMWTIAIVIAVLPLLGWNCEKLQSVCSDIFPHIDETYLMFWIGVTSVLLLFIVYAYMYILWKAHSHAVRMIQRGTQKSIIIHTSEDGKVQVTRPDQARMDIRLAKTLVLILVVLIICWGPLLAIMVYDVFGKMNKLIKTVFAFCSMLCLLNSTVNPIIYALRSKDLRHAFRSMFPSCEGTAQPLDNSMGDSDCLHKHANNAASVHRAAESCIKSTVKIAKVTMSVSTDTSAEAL

[15] = target: T4, G-protein coupled receptor 35; experiment: SAR analysis of Antagonists of the GPR35 Receptor using an Image-Based Assay - Set 6. [Related pubchem assays (depositor defined):AID2013, AID2026]; format: functional
Cannabinoid receptor 1 [16] = target: T5, Cannabinoid receptor 1; experiment: SAR analysis of antagonists of the Cannabinoid Receptor 1 using an Image-Based Assay - Set 4. [Related pubchem assays (depositor defined):AID2013, AID2026]; format: functional
[17] = target: G-protein coupled receptor 55 (Homo sapiens, UniProt Q9Y2T6); experiment: SAR Analysis of Selective Antagonists of GPR55 using an Image-Based Assay - Set 4. [Related pubchem assays (depositor defined):AID2013, AID2026]; format: functional;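 further: antagonism of response to 5 µM lysophosphatidylinositol agonist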
Sequence of G-protein coupled receptor 55 (Q9Y2T6 whole entry): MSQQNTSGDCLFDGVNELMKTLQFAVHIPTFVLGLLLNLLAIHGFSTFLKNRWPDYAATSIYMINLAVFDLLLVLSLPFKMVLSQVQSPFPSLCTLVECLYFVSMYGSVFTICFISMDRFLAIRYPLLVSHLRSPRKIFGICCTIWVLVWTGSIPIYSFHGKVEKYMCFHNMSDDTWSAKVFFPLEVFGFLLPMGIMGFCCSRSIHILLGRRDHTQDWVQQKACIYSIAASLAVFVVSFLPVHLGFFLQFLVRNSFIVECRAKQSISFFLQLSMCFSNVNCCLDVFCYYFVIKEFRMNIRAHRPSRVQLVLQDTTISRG

Cannabinoid receptor 2 [18] = target: T6, Cannabinoid receptor 2 (Homo sapiens, UniProt P34972); experiment: SAR analysis of antagonists of the Cannabinoid Receptor 2 using an Image-Based Assay - Set 3. [Related pubchem assays (depositor defined):AID2013, AID2026]; format: functional
T6 sequence (P34972 whole entry): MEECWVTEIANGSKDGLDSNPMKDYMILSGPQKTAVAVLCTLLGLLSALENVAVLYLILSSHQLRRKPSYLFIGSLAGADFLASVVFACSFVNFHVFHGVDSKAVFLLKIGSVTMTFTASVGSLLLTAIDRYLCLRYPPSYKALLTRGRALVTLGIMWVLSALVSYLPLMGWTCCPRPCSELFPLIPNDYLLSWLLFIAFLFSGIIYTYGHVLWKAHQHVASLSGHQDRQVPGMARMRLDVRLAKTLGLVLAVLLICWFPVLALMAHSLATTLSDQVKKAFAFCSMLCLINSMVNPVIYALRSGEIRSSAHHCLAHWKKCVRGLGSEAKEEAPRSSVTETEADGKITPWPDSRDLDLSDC

Cannabinoid receptor 2 [19] = target: T6, Cannabinoid receptor 2; experiment: SAR analysis of agonists of the Cannabinoid Receptor 2 using an Image-Based Assay - Set 3. [Related pubchem assays (depositor defined):AID2013, AID2026]; format: functional
SUMO E1/E2 = SUMO E1/E2 (Homo sapiens, UniProt P63279+Q9UBE0+Q9UBT2); experiment: SAR analysis of SUMOylation using HTRF in an in-Vitro dose response assay. [Related pubchem assays (depositor defined):AID2006, AID2011, AID2018, AID2069, AID2658]; format: functional
Sequence of SUMO E1/E2 (Q9UBE0 whole entry): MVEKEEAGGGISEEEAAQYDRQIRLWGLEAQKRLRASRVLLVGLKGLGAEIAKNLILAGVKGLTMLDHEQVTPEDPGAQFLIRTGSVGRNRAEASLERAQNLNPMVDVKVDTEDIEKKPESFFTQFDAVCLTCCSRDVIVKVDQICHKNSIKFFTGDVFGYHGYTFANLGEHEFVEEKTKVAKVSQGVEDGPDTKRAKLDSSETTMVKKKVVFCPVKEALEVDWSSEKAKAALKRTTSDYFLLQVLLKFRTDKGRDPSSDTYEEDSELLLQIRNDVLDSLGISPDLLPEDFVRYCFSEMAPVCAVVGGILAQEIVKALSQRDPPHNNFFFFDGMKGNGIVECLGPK
Sequence of SUMO E1/E2 (Q9UBT2 whole entry): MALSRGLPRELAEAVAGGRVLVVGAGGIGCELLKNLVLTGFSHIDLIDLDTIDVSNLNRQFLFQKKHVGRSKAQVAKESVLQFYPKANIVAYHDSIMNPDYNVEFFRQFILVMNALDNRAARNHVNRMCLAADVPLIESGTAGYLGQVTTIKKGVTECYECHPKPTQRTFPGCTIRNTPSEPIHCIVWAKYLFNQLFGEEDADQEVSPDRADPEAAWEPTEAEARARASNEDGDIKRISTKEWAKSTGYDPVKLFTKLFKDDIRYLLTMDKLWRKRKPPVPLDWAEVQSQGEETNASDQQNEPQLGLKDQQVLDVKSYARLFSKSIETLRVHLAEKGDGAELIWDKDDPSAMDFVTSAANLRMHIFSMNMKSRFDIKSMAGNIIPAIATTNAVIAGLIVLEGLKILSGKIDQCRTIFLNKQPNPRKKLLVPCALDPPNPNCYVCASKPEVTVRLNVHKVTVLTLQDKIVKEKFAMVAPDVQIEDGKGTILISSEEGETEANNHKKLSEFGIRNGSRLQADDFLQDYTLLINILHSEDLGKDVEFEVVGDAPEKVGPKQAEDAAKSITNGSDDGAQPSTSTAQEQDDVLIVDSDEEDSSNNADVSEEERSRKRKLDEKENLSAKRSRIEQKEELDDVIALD
Sequence of SUMO E1/E2 (P63279 whole entry): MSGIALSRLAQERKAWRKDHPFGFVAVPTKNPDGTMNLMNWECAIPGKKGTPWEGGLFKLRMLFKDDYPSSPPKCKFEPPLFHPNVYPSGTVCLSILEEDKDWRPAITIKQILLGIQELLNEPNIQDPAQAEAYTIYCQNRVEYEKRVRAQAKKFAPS

C/C(Cl)=C\Cn1c(NCCc2ccccc2)nc2c1c(=O)n(C)c(=O)n2C
IC50 [1]: > 25 µM (inactive) | IC50 (Interleukin-8 [2]): > 25 µM (inactive) | IC50 (Interleukin-8 [3]): > 25 µM (inactive) | IC50 [4]: 2.5 µM (active) | IC50 (HEK293 [5]): > 20 µM (inactive) | IC50 [6]: 2.61 µM (active) | IC50 [7]: 4.13 µM (active) | IC50 (Tumor necrosis factor): 5.66 µM (active) | IC50 (HEK293 [8]): > 20 µM (inactive) | IC50 [9]: 3.05 µM (active) | AC50 [10]: 0.283 µM (active) | AC50 [11]: 59.4 µM (active) | AC50 [12]: 0.493 µM (active)

Cc1cc(C)nc(NS(=O)(=O)c2ccc(NC(=O)c3cc(-c4ccccc4)nc4ccccc34)cc2)n1
EC50 [13]: > 32 µM (inactive) | EC50 (Cannabinoid receptor 1 [14]): > 32 µM (inactive) | IC50 [15]: > 32 µM (inactive) | IC50 (Cannabinoid receptor 1 [16]): 4.92 µM (active) | IC50 [17]: 13.7 µM (inactive) | IC50 (Cannabinoid receptor 2 [18]): > 32 µM (inactive) | EC50 (Cannabinoid receptor 2 [19]): > 32 µM (inactive)

O=C1c2oc3ccccc3c(=O)c2C(c2ccc(O)cc2)N1c1nccs1 (stereo unspecified)
IC50 (SUMO E1/E2): 28.7 µM (active)
